Experimental data taken from ChEMBL document CHEMBL4507319 (2021).

Columns and labels:
Conditions in all cases: Compound concentration 1000.0 nM
[1] = test system: Tyrosine-protein kinase ABL1 (Homo sapiens), P00519 [F317L]
[2] = biological target: T1, Testis-specific serine/threonine-protein kinase 1 (Homo sapiens) (UniProt Q9BXA7)
T1 sequence (whole entry): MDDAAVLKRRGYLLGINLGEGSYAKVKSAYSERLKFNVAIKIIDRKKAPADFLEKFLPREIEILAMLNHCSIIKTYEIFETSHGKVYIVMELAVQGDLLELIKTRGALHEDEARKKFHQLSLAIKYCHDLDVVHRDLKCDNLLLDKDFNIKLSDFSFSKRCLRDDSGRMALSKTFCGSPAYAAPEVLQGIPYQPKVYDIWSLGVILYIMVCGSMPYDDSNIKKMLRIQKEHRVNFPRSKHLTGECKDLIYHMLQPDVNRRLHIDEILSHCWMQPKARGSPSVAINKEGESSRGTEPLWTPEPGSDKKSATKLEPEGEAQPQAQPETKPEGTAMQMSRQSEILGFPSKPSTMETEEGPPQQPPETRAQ

[3] = biological target: Serine/threonine-protein kinase NIM1 (Homo sapiens) (UniProt Q8IY84)
Sequence of Serine/threonine-protein kinase NIM1 (Homo sapiens) (Q8IY84 whole entry): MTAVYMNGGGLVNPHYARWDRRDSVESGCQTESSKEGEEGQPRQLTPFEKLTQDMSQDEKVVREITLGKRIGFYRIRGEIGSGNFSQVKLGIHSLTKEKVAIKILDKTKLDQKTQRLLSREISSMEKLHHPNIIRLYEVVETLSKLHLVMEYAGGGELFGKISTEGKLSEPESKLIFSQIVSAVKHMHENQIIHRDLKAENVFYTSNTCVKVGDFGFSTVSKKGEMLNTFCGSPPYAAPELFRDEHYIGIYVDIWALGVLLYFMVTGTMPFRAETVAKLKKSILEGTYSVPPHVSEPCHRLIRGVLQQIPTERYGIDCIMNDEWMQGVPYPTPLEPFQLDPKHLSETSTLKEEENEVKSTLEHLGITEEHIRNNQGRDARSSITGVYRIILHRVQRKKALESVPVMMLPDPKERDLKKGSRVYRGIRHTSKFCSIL

[4] = biological target: Cyclin-dependent kinase 8 (Homo sapiens) (UniProt P49336)
Sequence of Cyclin-dependent kinase 8 (Homo sapiens) (P49336 whole entry): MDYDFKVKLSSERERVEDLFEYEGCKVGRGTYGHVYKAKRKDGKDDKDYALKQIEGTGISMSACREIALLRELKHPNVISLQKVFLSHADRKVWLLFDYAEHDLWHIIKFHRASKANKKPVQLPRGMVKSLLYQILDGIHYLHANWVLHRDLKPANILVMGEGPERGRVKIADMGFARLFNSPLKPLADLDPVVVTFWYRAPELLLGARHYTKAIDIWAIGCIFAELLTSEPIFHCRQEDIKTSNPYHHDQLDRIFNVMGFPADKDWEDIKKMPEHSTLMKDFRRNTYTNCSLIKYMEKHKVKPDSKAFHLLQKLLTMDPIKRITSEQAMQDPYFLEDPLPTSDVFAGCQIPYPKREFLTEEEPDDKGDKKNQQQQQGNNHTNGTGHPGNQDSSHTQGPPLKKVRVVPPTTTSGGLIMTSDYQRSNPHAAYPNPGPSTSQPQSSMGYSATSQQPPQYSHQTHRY

[5] = biological target: T2, Bone morphogenetic protein receptor type-2 (Homo sapiens) (UniProt Q13873)
T2 sequence (whole entry): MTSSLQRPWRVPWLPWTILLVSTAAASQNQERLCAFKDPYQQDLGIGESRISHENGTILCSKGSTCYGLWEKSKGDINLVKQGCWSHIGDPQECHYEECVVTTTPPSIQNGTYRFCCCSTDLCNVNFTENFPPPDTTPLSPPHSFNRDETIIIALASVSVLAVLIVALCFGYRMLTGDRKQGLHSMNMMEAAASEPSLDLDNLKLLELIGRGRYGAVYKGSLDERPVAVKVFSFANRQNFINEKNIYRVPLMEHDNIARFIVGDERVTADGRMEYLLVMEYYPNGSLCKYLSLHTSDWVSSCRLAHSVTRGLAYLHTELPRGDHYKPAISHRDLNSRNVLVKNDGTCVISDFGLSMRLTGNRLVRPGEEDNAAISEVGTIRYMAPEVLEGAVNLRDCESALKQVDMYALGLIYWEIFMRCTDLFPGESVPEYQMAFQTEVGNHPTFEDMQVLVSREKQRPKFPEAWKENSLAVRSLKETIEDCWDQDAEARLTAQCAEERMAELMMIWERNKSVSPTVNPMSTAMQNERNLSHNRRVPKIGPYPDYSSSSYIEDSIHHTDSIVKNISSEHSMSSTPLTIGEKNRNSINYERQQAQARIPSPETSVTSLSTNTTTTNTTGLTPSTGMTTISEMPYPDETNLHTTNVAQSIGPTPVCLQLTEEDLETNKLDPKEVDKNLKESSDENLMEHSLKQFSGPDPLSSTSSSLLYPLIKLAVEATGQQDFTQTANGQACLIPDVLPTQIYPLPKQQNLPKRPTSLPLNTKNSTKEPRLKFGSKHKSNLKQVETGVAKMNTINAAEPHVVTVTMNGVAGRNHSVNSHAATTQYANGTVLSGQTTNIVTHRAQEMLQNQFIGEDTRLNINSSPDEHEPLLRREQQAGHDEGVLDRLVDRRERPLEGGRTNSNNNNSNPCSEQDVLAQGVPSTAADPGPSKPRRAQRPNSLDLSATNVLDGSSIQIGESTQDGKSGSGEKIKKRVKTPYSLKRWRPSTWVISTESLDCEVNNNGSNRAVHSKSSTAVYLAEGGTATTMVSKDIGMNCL

[6] = biological target: Mitogen-activated protein kinase kinase kinase 3 (Homo sapiens) (UniProt Q99759)
Sequence of Mitogen-activated protein kinase kinase kinase 3 (Homo sapiens) (Q99759 whole entry): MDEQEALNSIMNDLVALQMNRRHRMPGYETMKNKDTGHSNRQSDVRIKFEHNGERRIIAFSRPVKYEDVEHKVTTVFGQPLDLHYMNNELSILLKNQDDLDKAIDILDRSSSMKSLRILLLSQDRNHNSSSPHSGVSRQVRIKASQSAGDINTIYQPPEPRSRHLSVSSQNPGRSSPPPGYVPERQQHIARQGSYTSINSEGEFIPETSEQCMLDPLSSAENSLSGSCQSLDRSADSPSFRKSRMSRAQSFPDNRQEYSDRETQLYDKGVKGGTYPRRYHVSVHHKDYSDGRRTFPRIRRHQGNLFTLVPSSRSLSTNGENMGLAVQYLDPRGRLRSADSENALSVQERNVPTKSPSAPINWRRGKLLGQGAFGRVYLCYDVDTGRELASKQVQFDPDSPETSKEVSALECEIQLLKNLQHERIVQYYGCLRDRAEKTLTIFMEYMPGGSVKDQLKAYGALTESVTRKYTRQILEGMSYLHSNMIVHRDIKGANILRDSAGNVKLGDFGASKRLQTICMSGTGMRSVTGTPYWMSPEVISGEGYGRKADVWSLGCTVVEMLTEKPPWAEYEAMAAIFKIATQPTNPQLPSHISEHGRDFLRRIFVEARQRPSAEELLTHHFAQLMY

[7] = biological target: T3, Rhodopsin kinase GRK7 (Homo sapiens) (UniProt Q8WTQ7)
T3 sequence (whole entry): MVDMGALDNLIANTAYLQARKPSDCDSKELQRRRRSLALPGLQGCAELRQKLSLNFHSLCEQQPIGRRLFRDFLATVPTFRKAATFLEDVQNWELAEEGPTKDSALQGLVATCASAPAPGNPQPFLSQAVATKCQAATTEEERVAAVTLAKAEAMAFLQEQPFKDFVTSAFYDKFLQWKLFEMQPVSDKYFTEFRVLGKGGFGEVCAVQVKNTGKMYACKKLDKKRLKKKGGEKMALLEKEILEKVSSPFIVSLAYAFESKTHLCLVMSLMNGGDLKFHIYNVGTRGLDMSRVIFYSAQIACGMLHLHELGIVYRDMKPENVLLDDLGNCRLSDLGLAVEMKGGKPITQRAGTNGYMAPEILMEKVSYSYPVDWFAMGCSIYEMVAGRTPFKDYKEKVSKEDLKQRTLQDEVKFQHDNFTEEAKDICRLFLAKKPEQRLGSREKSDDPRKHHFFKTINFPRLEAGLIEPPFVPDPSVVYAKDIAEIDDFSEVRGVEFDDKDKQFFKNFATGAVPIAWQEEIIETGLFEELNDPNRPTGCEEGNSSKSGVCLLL

[8] = biological target: Dual specificity protein kinase CLK2 (Homo sapiens) (UniProt P49760)
Sequence of Dual specificity protein kinase CLK2 (Homo sapiens) (P49760 whole entry, looked up): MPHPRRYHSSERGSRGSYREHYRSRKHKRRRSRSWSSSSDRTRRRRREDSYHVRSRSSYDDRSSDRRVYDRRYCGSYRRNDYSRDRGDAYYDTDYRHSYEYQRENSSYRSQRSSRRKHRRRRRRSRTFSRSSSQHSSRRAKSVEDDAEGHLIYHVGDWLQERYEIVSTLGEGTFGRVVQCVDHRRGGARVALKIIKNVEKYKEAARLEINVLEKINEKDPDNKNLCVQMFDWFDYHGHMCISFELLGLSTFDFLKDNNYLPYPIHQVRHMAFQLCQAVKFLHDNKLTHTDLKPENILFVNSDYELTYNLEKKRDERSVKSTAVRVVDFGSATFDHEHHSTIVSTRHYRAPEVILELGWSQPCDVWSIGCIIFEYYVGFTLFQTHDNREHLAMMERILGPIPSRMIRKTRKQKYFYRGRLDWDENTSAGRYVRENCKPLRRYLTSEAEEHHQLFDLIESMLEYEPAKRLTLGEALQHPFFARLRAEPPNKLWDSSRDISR

[9] = biological target: Phosphatidylinositol 4-phosphate 5-kinase type-1 gamma (Homo sapiens) (UniProt O60331)
Sequence of Phosphatidylinositol 4-phosphate 5-kinase type-1 gamma (Homo sapiens) (O60331 whole entry): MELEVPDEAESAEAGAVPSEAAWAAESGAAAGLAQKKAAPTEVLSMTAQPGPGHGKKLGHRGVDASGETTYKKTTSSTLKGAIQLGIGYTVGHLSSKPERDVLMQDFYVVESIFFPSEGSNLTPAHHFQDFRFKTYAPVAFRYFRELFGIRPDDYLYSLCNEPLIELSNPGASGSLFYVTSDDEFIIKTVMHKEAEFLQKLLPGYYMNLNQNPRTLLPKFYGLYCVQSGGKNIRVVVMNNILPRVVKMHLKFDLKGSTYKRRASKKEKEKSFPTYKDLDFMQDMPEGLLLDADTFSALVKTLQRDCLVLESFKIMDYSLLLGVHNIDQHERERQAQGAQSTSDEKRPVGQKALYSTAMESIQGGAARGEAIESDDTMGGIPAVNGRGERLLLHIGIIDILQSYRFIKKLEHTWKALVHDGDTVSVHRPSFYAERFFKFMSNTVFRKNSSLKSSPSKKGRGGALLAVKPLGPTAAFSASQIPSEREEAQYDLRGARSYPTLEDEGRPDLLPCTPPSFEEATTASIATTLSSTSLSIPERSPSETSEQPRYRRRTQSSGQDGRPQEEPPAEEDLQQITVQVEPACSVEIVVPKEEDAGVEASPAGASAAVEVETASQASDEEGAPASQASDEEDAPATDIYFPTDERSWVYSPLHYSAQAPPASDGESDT

Measured: residual activity

Sequence of Tyrosine-protein kinase ABL1 (Homo sapiens), P00519 [F317L] (P00519 whole entry F317L): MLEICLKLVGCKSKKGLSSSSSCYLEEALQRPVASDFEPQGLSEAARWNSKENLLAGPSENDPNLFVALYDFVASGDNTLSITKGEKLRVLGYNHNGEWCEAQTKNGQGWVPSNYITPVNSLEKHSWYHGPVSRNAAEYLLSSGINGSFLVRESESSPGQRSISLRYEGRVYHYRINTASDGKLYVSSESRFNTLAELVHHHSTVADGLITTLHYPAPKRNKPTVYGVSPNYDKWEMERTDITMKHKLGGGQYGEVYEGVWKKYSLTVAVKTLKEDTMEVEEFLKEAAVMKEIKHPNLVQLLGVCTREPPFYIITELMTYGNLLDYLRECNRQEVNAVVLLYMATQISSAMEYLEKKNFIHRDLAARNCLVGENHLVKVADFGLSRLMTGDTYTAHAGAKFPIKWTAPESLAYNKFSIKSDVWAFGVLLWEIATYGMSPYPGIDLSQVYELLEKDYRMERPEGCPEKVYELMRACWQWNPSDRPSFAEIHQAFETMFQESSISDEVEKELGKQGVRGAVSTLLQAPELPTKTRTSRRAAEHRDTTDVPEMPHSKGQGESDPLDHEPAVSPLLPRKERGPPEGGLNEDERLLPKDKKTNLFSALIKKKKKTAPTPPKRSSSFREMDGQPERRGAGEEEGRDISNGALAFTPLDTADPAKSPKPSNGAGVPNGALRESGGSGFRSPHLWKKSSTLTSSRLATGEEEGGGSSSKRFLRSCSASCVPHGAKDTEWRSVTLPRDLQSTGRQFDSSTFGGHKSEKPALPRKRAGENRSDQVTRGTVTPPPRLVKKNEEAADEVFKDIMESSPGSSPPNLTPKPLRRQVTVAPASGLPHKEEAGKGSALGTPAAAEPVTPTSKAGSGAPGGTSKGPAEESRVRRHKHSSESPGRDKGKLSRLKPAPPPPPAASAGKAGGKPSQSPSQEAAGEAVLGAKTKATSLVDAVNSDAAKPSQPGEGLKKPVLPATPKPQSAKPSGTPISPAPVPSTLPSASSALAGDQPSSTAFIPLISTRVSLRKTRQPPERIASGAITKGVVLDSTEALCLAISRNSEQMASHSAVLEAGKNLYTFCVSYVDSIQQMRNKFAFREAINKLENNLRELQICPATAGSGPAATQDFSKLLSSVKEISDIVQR

CC1=C(C#N)C(c2ccc3c(c2)c(NC(=O)c2ccccc2C)nn3C)C(C#N)=C(C)N1 [BAY-974]
inactive: [1] 97% | [2] 100% | [3] 86% | [4] 97% | [5] 79% | [6] 77% | [7] 70% | [8] 75% | [9] 91%

CCc1ccccc1C(=O)Nc1n[nH]c2c(C)c(F)c(C3C(C#N)=C(C)N(C)C(C)=C3C#N)cc12 [BAY-3827]
inactive: [1] 100% | [2] 95% | [3] 100% | [4] 71% | [5] 100% | [6] 100% | [7] 54% | [8] 55% | [9] 56%
